Measured values as given in US11464720B2, “TRPA1 activity inhibitor” (MANDOM CORPORATION, priority 2017, dated 2022).

Legend:
human TRPA1 = molecular target: T1, human TRPA1 (Homo sapiens, UniProt O75762); assay: Test Example 1: TRPA1 activity-inhibition ratio, intracellular calcium (Fura 2-AM) in TRPA1-expressing HEK293 cells stimulated with menthol; assay type: cell-based; details: mixed with agonist 1 mM menthol
T1 construct: expressed in transfected cells; host or cells: HEK293 cells, transient lipofection of pcDNA3.1(+) human TRPA1-expression vector
Description: A cDNA encoding human TRPA1 [a polynucleotide of position 63 to position 3888 of the nucleotide sequence shown in SEQ ID NO: 1 (GenBank Accession No.: NM_007332)] was inserted into a cloning site of a vector for mammalian cells [manufactured by Invitrogen under the trade name of pcDNA3.1(+)], to obtain a human TRPA1-expression vector. One microgram of the resulting human TRPA1-expression vector was mixed with 6 μL of a gene transfer reagent [manufactured by Invitrogen under the trade name of PLUS Reagent, Catalogue No.: 11514-015], to obtain a mixture I. Additionally, 4 μL of a cationic lipid for gene transfer [manufactured by Invitrogen under the trade name of Lipofectamine (registered trademark), Catalogue No.: 18324-012] was mixed with 200 μL of a medium for reducing serum consumption [Manufactured by Invitrogen under the trade name of Opti-MEM (registered trademark) I Reduced Serum Medium (catalogue No.: 11058021)], to obtain a mixture II.
Furthermore, 5×10^5 cells of HEK293 cells were cultured in a 10% by mass fetal bovine serum (FBS)-containing Dulbecco's modified Eagle's medium (DMEM) on a dish having a diameter of 35 mm maintained at 37° C. under 5% by volume carbon dioxide atmosphere to 70% confluence.
By adding the mixture I and the mixture II to the resulting cell culture, the human TRPA1-expression vector was introduced into HEK293 cells, to obtain TRPA1-expressing cells. […]
Thereafter, intensity of fluorescence A based on the Fura 2-AM introduced into the TRPA1-expressing cell and bound to a calcium ion in the cells at an excitation wavelength of 340 nm in the chamber and intensity of fluorescence B based on the Fura 2-AM introduced into the TRAP1-expressing cell at an excitation wavelength of 380 nm were measured.
Using the measured intensity of fluorescence A and B, Δfluorescence intensity ratioagonist was calculated. The Δfluorescence intensity ratioagonist was calculated on the basis of the formula (IV): [Formula 1] ΔFluorescence intensity ratioagonist=(Fluorescence intensity340 nm in the presence of an agonist/Fluorescence intensity 380 nm in the presence of an agonist)−(Fluorescence intensity340 nm in the presence of a control/Fluorescence intensity380 nm in the presence of a control) (IV).
In the formula (IV), the intensity of fluorescence A was used as fluorescence intensity340 nm, and the intensity of fluorescence B was used as fluorescence intensity380 nm. […]

human TRPM8 = molecular target: T2, human TRPM8 (Homo sapiens, UniProt Q7Z2W7); assay: Test Example 2: enhancement degree of TRPM8 activity, intracellular calcium (Fura 2-AM) in TRPM8-expressing HEK293 cells; assay type: cell-based; details: test sample 0.5 mM, ratio to TRPM8 activity enhanced by agonist 1 mM menthol, FIG. 2
T2 construct: expressed in transfected cells; host or cells: HEK293 cells, transient lipofection of pcDNA3.1(+) human TRPM8-expression vector
Description: A cDNA encoding human TRPM8 [a polynucleotide of position 41 to position 3355 of the nucleotide sequence shown in SEQ ID NO: 3 (GenBank Accession No.: NM_024080)] was inserted into a cloning site of a vector for mammalian cells [manufactured by Invitrogen under the trade name of pcDNA3.1(+)], to obtain a human TRPM8-expression vector. One microgram of the resulting human TRPM8-expression vector was mixed with 6 μL of a gene transfer reagent [manufactured by Invitrogen under the trade name of PLUS Reagent, Catalogue No.: 11514-015], to obtain a mixture III. […]
Thereafter, intensity of fluorescence E based on the Fura 2-AM introduced into the TRPM8-expressing cell and bound to a calcium ion in the cells at an excitation wavelength of 340 nm and intensity of fluorescence F based on the Fura 2-AM introduced into the TRAM8-expressing cell at an excitation wavelength of 380 nm were measured in the chamber.
Using the measured intensity of fluorescence E and F, Δfluorescence intensity ratiotest sample was calculated on the basis of the formula (V). In the formula (V), the intensity of fluorescence E was used as fluorescence intensity340 nm, and the intensity of fluorescence F was used as fluorescence intensity380 nm. […]

[1] = test sample 1 mM in solvent A, FIG. 1

T1 sequence (O75762 whole entry): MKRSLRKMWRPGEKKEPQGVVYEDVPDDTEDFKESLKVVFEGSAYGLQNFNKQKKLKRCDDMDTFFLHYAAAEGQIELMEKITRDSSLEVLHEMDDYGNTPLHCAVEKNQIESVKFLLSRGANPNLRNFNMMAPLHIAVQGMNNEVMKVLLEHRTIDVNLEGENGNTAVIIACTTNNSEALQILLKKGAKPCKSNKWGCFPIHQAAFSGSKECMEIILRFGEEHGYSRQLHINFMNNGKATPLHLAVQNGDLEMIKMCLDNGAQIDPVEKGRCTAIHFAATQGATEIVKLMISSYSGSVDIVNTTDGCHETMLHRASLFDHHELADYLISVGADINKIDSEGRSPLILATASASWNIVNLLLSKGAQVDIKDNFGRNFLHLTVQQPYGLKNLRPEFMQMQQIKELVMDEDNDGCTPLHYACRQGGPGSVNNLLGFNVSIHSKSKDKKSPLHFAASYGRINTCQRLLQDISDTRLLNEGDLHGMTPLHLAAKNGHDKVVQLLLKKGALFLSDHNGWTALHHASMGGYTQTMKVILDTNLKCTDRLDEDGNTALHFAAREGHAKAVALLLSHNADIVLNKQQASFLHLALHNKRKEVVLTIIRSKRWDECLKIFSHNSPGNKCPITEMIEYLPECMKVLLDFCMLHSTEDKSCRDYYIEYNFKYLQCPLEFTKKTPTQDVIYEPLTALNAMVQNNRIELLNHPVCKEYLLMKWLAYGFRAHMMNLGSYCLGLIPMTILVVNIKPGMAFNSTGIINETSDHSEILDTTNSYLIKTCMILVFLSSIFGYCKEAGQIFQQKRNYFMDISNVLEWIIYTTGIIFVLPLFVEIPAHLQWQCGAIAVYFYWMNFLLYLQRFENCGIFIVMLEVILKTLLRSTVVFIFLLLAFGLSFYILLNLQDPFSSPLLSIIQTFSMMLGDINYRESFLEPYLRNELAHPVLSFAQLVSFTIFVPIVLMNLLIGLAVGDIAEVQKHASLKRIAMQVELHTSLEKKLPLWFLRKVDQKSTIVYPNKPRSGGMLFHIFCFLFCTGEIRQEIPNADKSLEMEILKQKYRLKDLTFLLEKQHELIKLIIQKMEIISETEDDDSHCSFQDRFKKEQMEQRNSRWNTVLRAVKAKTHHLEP
T2 sequence (Q7Z2W7 whole entry): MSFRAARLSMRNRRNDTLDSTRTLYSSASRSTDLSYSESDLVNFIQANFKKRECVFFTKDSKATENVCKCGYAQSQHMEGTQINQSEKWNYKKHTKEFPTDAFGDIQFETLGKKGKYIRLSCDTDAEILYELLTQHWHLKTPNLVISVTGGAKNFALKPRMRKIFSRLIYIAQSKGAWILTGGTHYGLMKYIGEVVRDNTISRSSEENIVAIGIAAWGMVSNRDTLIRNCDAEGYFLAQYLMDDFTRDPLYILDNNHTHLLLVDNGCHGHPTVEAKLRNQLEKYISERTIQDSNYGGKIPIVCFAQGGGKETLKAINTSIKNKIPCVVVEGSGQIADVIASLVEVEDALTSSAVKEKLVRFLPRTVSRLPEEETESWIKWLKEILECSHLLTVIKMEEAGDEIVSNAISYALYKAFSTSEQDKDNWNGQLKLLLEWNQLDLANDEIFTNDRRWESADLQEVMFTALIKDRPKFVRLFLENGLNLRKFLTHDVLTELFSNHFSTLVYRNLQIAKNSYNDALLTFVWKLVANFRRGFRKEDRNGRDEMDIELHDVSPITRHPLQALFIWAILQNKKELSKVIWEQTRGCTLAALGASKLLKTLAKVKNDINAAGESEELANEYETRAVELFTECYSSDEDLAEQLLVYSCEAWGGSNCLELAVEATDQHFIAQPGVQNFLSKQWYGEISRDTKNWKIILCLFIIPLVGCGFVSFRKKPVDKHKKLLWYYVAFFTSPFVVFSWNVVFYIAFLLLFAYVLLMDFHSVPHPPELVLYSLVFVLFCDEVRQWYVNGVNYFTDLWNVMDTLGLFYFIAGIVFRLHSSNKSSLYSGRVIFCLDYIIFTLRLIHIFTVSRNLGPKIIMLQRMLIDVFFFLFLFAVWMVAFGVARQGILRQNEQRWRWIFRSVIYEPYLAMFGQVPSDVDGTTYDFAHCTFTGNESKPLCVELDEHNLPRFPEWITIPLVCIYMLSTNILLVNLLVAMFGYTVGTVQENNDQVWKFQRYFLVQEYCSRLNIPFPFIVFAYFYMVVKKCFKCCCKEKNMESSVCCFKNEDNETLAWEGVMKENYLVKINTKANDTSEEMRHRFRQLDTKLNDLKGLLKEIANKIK

For `OCC(O)CO` [Comparative Example 1, Glycerol], the TRPA1 activity-inhibition ratio (human TRPA1; test sample 5 mM glycerol in solvent A, FIG. 1 lane 4) was no more than 0%.
In the case of `CC1(C)C2CCC1(C)C(OCCO)C2` (stereo not drawn) [Example 1, 2-isobornyloxyethanol], the “Enhancement degree of TRPM8 activity” value (human TRPM8) is reported as “about 0.69” and the TRPA1 activity-inhibition ratio (human TRPA1; [1]) is reported as “about 99%”.
For `CC12CCC(CC1)C(C)(C)O2` [Reference Example 2, 1,8-cineole], the TRPA1 activity-inhibition ratio (human TRPA1; [1]) was “about 71%”.
For `CC1(C)C2CCC1(C)C(O)C2` (stereo not drawn) [Reference Example 1, Borneol], the “Enhancement degree of TRPM8 activity” value (human TRPM8) was “about 0.35” and the TRPA1 activity-inhibition ratio (human TRPA1; [1]) was “about 96%”.
